Consider 4 sequences from US8741851B2, “Peptides having antimicrobial activity” (Universiti Malaya, priority 2012, dated 2014).

The subject of assay [1] is penicillin-resistant pneumococci. The experiment in a line: broth microdilution MIC, penicillin-resistant pneumococci. The format is cell-based, Streptococcus pneumoniae. Particulars: 20 isolates; for ER (effective range of MIC): 5×10^5 cfu/ml. The text has this: (§1) The antimicrobial peptides are thereafter tested using broth microdilution assay 5×10^5 cfu/ml against a total of 60 pneumococcal isolates (20 isolates for each penicillin-susceptible, penicilin-intermediate, and penicilin-resistant pneumococci) to determine their minimum inhibitory concentration (MIC).
(§2) The minimum inhibitory concentration of the antimicrobial peptide for Pro-His-Trp-Trp-Lys-Trp-Ala-Trp-Trp-His-His-Arg-Arg (SEQ ID NO:1), Lys-His-Trp-Trp-Lys-His-Asp-Trp-Trp-Arg-Trp-Arg-Arg (SEQ ID NO:2), and Ile-Leu-Trp-Trp-Leu-Leu-Ala-Trp-Trp-Arg-Trp-Pro-His (SEQ ID NO:3) are presented in Table 1. An effective range (ER) is defined as the range of the minimum inhibitory concentration to which the antimicrobial peptide produces detectable activity against the bacterial pathogens, whereas an effective percentage (EP) is the percentage of isolates inhibited with the effective range. From the Table 1, the SEQ ID NO:1 inhibited 95% penicillin-resistant pneumococci at the effective range of 62.5 to 250 μg/ml, 85% penicilin-intermediate pneumococci was inhibited at the effective range of 62.5 to 250 μg/ml, and 80% penicilin-susceptible pneumococci was inhibited at the effective range of 125 to 250 μg/ml. The SEQ ID NO:2 inhibited 100% of penicillin-resistant pneumococci at the effective range of 62.5 to 250 μg/ml, 95% penicilin-intermediate pneumococci was inhibited at the effective range of 125 to 250 μg/ml, and 95% penicilin-susceptible pneumococci was inhibited at the effective range of 62.5 to 250 μg/ml. […] However, the antipneumococcal activity is not detected for SEQ ID NO:3 up to the maximum concentration (250 μg/ml) tested.
A general note: Broth dilution looks for growth in wells or tubes with falling amounts of substance.

In assay [2] the test system is K. pneumoniae. Nature of the assay: antimicrobial activity against bacterial pathogens. The class given is cell-based. The conditions noted are these: Gram-negative.
For assay [3], the system named is Escherichia coli. The experiment in a line: antimicrobial activity against bacterial pathogens. The class given is cell-based. The conditions noted are these: Gram-negative. The procedure: as §1
(§3) In a preferred embodiment, the SEQ ID NO:1 is weakly effective against Acinetobacter baumannii at 125 μg/ml only. The SEQ ID NO:2 has broader spectrum which effective against Acinetobacter baumannii, Staphylococcus aureus, methicillin-resistant Staphylococcus aureus, Escherichia coli, Enterococcus cloacae at 125 μg/ml respectively.

Assay [4] deals with Staphylococcus aureus. The experiment in a line: antimicrobial activity against bacterial pathogens. The format is cell-based. The conditions noted are these: Gram-positive. The procedure: as §1, §3
The test system of assay [5] is methicillin-resistant Staphylococcus aureus. Nature of the assay: antimicrobial activity against bacterial pathogens. The class given is cell-based. The conditions noted are these: Gram-positive. The procedure: as §1, §3
Assay [6] deals with Acinetobacter baumannii. Nature of the assay: antimicrobial activity against bacterial pathogens. The conditions noted are these: Gram-negative. The class given is cell-based. The protocol:
as §1, §3

The subject of assay [7] is Pseudomonas aeruginosa. Nature of the assay: antimicrobial activity against bacterial pathogens. The format is cell-based. Particulars: Gram-negative.
Assay [8] can be described thus: antimicrobial activity against bacterial pathogens. The class given is cell-based, Enterococcus cloacae. Particulars: Gram-negative. The procedure:
as §1, §3

The subject of assay [9] is penicilin-intermediate pneumococci. Nature of the assay: broth microdilution MIC, penicilin-intermediate pneumococci. The class given is cell-based, Streptococcus pneumoniae. Particulars: 20 isolates; for ER (effective range of MIC): 5×10^5 cfu/ml.
Description: as §1, §2

Assay [10] concerns Citrobacter spp. Nature of the assay: antimicrobial activity against bacterial pathogens. The class given is cell-based. The conditions noted are these: Gram-negative.
Assay [11] concerns Streptococcus pneumoniae. Nature of the assay: broth microdilution MIC, all 60 pneumococcal isolates. The class given is cell-based. The conditions noted are these: for Overall EP: all 60 pneumococcal isolates irrespective of penicillin susceptibility; for overall effective percentage relative to the indolicidin class of antimicrobial peptide: higher than indolicidin, irrespective of penicillin susceptibility.
Description: as §1, §2

Assay [12] relates to penicilin-susceptible pneumococci. The experiment in a line: broth microdilution MIC, penicilin-susceptible pneumococci. The class given is cell-based, Streptococcus pneumoniae. The conditions noted are these: 20 isolates; for ER (effective range of MIC): 5×10^5 cfu/ml.
Description: as §1, §2

Where no end group is shown, it is not given here.

Consider ILWWKWAWWRWRR [reference compound], for which the “EP (effective percentage, isolates inhibited within ER)” value in [1] came to 45%; in assay [9], 30%; in [12], 65%. The “ER (effective range of MIC)” value in assay [1] was in the range of 62.5 to 250 µg/mL; in assay [9], 125 to 250 µg/mL; in assay [12], 31.25 to 250 µg/mL. Also, the “antimicrobial activity (inhibitory concentration) against K. pneumoniae” value in [2] was above 250 µg/mL. Besides, the “antimicrobial activity (inhibitory concentration) against E. coli” value in [3] came out at 250 µg/mL. The “antimicrobial activity (inhibitory concentration) against S. aureus” value in assay [4] stood at 62.5 µg/mL. Moreover, in assay [5], the “antimicrobial activity (inhibitory concentration) against methicillin-resistant S. aureus” value came out at 31.25 µg/mL. In addition, the “antimicrobial activity (inhibitory concentration) against A. baumannii” value in assay [6] is 125 µg/mL. For the same sequence, in assay [7], the “antimicrobial activity (inhibitory concentration) against P. aeruginosa” value is above 250 µg/mL. In assay [8], the “antimicrobial activity (inhibitory concentration) against E. cloacae” value is 125 µg/mL. Also, the “antimicrobial activity (inhibitory concentration) against Citrobacter spp.” value in assay [10] is 62.5 µg/mL. The “Overall EP” value in [11] was 46.7%.

With ILWWLLAWWRWPH [SEQ ID NO:3], the “EP (effective percentage, isolates inhibited within ER)” value in assay [1], in assay [9] and in [12] was 0% each time. The “ER (effective range of MIC)” value in [1], in assay [9] and in assay [12] was above 250 µg/mL in each case. Moreover, in [2], the “antimicrobial activity (inhibitory concentration) against K. pneumoniae” value was above 250 µg/mL. In assay [3], the “antimicrobial activity (inhibitory concentration) against E. coli” value is above 250 µg/mL. In addition, the “antimicrobial activity (inhibitory concentration) against S. aureus” value in [4] is 7.81 µg/mL. The “antimicrobial activity (inhibitory concentration) against methicillin-resistant S. aureus” value in assay [5] was above 250 µg/mL. In addition, the “antimicrobial activity (inhibitory concentration) against A. baumannii” value in assay [6] was above 250 µg/mL. Moreover, the “antimicrobial activity (inhibitory concentration) against P. aeruginosa” value in [7] is above 250 µg/mL. In assay [8], the “antimicrobial activity (inhibitory concentration) against E. cloacae” value is above 250 µg/mL. For the same sequence, the “antimicrobial activity (inhibitory concentration) against Citrobacter spp.” value in [10] is above 250 µg/mL. Further, the “Overall EP” value in assay [11] was found to be 0%. The antipneumococcal activity result in assay [11] (up to the maximum concentration (250 μg/ml) tested) is “not detected”.

On to KHWWKHDWWRWRR [SEQ ID NO:2], for which, in [1], the “EP (effective percentage, isolates inhibited within ER)” value was determined as 100% and the “ER (effective range of MIC)” value fell in the range of 62.5 to 250 µg/mL. For the same sequence, the “antimicrobial activity (inhibitory concentration) against K. pneumoniae” value in assay [2] is above 250 µg/mL. For the same sequence, the “antimicrobial activity (inhibitory concentration) against E. coli” value in assay [3] stood at 125 µg/mL. Also, the “antimicrobial activity (inhibitory concentration) against S. aureus” value in assay [4] worked out at 125 µg/mL. In addition, the “antimicrobial activity (inhibitory concentration) against methicillin-resistant S. aureus” value in assay [5] is 125 µg/mL. For the same sequence, the “antimicrobial activity (inhibitory concentration) against A. baumannii” value in assay [6] worked out at 125 µg/mL. For the same sequence, in [7], the “antimicrobial activity (inhibitory concentration) against P. aeruginosa” value turned out to be 62.5 µg/mL. In addition, the “antimicrobial activity (inhibitory concentration) against E. cloacae” value in assay [8] was found to be 125 µg/mL. Further, in assay [9], the “EP (effective percentage, isolates inhibited within ER)” value is 95% and the “ER (effective range of MIC)” value is 125 to 250 µg/mL. For the same sequence, the “antimicrobial activity (inhibitory concentration) against Citrobacter spp.” value in assay [10] was 31.25 µg/mL. Besides, in assay [11], the “Overall EP” value came out at 96.7% and the “overall effective percentage relative to the indolicidin class of antimicrobial peptide” value is listed as “approximately two fold”. In assay [12], the “EP (effective percentage, isolates inhibited within ER)” value stood at 95% and the “ER (effective range of MIC)” value was in the range of 62.5 to 250 µg/mL.

On to PHWWKWAWWHHRR [SEQ ID NO:1], for which, in assay [1], the “EP (effective percentage, isolates inhibited within ER)” value was 95% and the “ER (effective range of MIC)” value fell in the range of 62.5 to 250 µg/mL. In assay [2], the “antimicrobial activity (inhibitory concentration) against K. pneumoniae” value is above 250 µg/mL. The “antimicrobial activity (inhibitory concentration) against E. coli” value in assay [3] was above 250 µg/mL. The “antimicrobial activity (inhibitory concentration) against S. aureus” value in assay [4] was above 250 µg/mL. Also, the “antimicrobial activity (inhibitory concentration) against methicillin-resistant S. aureus” value in assay [5] was above 250 µg/mL. In assay [6], the “antimicrobial activity (inhibitory concentration) against A. baumannii” value amounted to 125 µg/mL. The “antimicrobial activity (inhibitory concentration) against P. aeruginosa” value in assay [7] is above 250 µg/mL. The “antimicrobial activity (inhibitory concentration) against E. cloacae” value in assay [8] is above 250 µg/mL. In addition, in assay [9], the “EP (effective percentage, isolates inhibited within ER)” value was 85% and the “ER (effective range of MIC)” value lay within 62.5 to 250 µg/mL. The “antimicrobial activity (inhibitory concentration) against Citrobacter spp.” value in assay [10] is above 250 µg/mL. Also, in [11], the “Overall EP” value was 86.7% and the “overall effective percentage relative to the indolicidin class of antimicrobial peptide” value is “approximately two fold”. Moreover, in assay [12], the “EP (effective percentage, isolates inhibited within ER)” value was determined as 80% and the “ER (effective range of MIC)” value fell in the range of 125 to 250 µg/mL.
